Among the data in patent US20240217989A1, “Heteroaryl Fluoroalkenes As DGK Inhibitors” (Incyte Corporation, priority 2022, published 2024) are IC50 values, retold here.

One experiment deals with T1, DGKα (Homo sapiens, UniProt P23743).
T1 construct: His; purchased Signal Chem D21-10BH
Kind of experiment: In vitro DGKα inhibition assay (ADP-Glo). In kind it is biochemical. The conditions noted are these: His-tagged human recombinant enzyme; 0.1 nM DGKα, 50 μM ATP, 20 μM DLG; 90 minute incubation; ADP-Glo luminescence. As for the experimental part:
(§1) The DGKα and DGKζ biochemical reactions were performed using His-tagged human recombinant enzymes (Signal Chem, DGKα, #D21-10BH; DGKζ, #D30-10H)) and DLG (Dilauroyl-sn-glycerol) lipid substrate (Signal Chem, #D430-59). ADP-Glo assay was performed using ADP-Glo™ kinase Assay kit (Promega, #V9104). The reactions were carried out in assay buffer containing 40 mM Tris, pH 7.5, 0.1% CHAPS, 0.1% Prionex, 40 mM NaCl, 5 mM MgCl2, 1 mM CaCl2, and 1 mM DTT. DGKα reactions contained 0.1 nM DGKα, 50 μM ATP, and 20 μM DLG. And DGKζ reactions contained 0.4 nM DGKζ, 30 μM ATP, and 20 μM DLG. For compound inhibition studies, 40 nL test compound in DMSO was added to wells of white polystyrene plates in 384-well (Greiner, #784075) or 1536-well format (Greiner, #782075). Compounds were added with top concentration of 2 mM with 11 point, 3-fold dilution series. Enzyme solution (contains 2× DGK enzyme concentration in 1× assay buffer) was added to the plate in 2 μL/well volume, followed by 2 μL/well of substrate solution (contains 2× concentration of ATP and DLG substrate in 1× assay buffer). Plates were then centrifuged for 1 min at 1200 RPM and sealed or lidded. For 4 μL reaction volume, test compounds were therefore diluted 100× to final top concentration of 20 μM. After 90 minute incubation, reactions were quenched by addition of 2 μL/well Promega ADP-Glo Reagent, followed by centrifugation and lidding. After 60 min incubation, 2 μL/well Promega Kinase Detection Reagent was added, plates centrifuged, and incubated for 30 min. Plates were then read using Luminescence method on BMG PHERAstar FSX plate reader. Percent inhibition was calculated and IC50s were determined using 4-parameter fit in Genedata Screener. Labcyte Echo acoustic dispenser was used for compound addition, and Formulatrix Tempest liquid handler was used for all reagent dispenses.
For orientation: ADP-Glo turns the ADP formed in a reaction into a luminescent signal.

The target in another experiment is DGKζ (Homo sapiens, UniProt Q13574). Kind of experiment: In vitro DGKζ inhibition assay (ADP-Glo). In kind it is biochemical. The conditions noted are these: His-tagged human recombinant enzyme; 0.4 nM DGKζ, 30 μM ATP, 20 μM DLG; 90 minute incubation; ADP-Glo luminescence. The method, then: as §1
Chain of DGKζ (Q13574 whole entry): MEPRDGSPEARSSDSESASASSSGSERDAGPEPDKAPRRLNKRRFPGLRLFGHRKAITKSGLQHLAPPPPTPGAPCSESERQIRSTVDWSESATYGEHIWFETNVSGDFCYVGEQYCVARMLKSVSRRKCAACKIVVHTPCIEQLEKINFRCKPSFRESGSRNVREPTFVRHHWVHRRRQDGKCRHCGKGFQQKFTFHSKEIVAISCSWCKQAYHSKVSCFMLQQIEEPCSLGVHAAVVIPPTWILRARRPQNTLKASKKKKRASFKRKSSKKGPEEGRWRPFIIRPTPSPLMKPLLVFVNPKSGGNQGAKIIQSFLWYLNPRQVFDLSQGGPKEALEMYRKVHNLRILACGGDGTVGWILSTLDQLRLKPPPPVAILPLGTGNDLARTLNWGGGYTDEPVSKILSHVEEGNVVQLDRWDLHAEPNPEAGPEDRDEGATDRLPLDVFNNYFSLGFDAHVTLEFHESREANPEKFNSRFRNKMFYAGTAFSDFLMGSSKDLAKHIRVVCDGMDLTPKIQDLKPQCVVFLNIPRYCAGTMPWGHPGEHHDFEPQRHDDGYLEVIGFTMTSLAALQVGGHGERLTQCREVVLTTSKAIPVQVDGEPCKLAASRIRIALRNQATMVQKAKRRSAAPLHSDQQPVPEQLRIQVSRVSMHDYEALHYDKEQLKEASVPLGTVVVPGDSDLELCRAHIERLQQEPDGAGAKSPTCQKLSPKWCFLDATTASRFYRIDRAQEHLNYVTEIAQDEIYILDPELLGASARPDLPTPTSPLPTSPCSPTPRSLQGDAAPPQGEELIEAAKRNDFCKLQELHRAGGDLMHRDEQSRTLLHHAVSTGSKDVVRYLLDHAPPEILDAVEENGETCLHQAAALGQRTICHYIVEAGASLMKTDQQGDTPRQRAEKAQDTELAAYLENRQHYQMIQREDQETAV

Bounds are passed on as bounds.

T1 sequence (P23743 whole entry): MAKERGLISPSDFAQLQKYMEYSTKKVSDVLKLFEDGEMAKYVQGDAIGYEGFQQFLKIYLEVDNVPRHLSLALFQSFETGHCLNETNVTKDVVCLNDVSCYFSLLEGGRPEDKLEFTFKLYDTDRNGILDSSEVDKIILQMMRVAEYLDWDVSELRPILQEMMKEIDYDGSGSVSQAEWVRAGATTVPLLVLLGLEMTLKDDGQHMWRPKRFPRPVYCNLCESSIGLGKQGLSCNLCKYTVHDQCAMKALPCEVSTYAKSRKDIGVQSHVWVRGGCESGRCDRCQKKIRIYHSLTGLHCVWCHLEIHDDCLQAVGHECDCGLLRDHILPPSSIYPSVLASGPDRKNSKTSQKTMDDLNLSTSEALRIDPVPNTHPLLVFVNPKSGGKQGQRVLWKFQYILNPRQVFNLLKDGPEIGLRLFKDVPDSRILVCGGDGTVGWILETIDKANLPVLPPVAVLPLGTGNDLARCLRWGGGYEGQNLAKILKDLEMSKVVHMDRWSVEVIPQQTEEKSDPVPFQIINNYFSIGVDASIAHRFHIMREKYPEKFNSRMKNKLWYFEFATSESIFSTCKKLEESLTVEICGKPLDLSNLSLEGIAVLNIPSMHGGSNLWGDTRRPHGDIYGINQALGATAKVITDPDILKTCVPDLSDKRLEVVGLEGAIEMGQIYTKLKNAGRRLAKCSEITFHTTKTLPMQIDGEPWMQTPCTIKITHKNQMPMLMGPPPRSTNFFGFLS

As for `NC[C@@H]1CCCN(c2c(/C=C(\F)c3cc4nccnc4c(N4CC(F)(F)C4)n3)ccc(Oc3ccccc3F)c2C(F)(F)F)C1` [Example 1, (S,Z)-(1-(6-(2-(5-(3,3-Difluoroazetidin-1-yl)pyrido[3,4-b]pyrazin-7-yl)-2-fluorovinyl)-3-(2-fluorophenoxy)-2-(trifluoromethyl)phenyl)piperidin-3-yl)methanamine], the IC50 at DGKα and at DGKζ was 20 to 200 nM throughout.

As for `NC[C@@H]1CCCN(c2c(/C=C(\F)c3cn4ccnc4c(N4CC(F)(F)C4)n3)ccc(Oc3ccccc3F)c2C(F)(F)F)C1` [Example 2, (S,Z)-(1-(6-(2-(8-(3,3-Difluoroazetidin-1-yl)imidazo[1,2-a]pyrazin-6-yl)-2-fluorovinyl)-3-(2-fluorophenoxy)-2-(trifluoromethyl)phenyl)piperidin-3-yl)methanamine], the IC50 on DGKα and on DGKζ was at most 20 nM in each case.

In the case of `N#Cc1ncc(N2CC(F)(F)C2)nc1/C(F)=C/c1ccc(Oc2ccccc2F)c(C(F)(F)F)c1N1CCC[C@@H](CN)C1` [Example 3, (S,Z)-3-(2-(2-(3-(Aminomethyl)piperidin-1-yl)-4-(2-fluorophenoxy)-3-(trifluoromethyl)phenyl)-1-fluorovinyl)-5-(3,3-difluoroazetidin-1-yl)pyrazine-2-carbonitrile], the IC50 at DGKα and at DGKζ was at most 20 nM throughout.

Turning to `NC[C@@H]1CCCN(c2c(/C=C(\F)c3cncc(-c4ccns4)n3)ccc(Oc3ccccc3F)c2C(F)(F)F)C1` [Example 4, (S,Z)-(1-(6-(2-Fluoro-2-(6-(isothiazol-5-yl)pyrazin-2-yl)vinyl)-3-(2-fluorophenoxy)-2-(trifluoromethyl)phenyl)piperidin-3-yl)methanamine], the IC50 at DGKζ was at most 20 nM.

On to `CN(CCCN)c1c(/C=C(\F)c2cccc(-c3ccnnc3)n2)ccc(Oc2ccccc2)c1C(F)(F)F` [Example 5, (Z)-N1-(6-(2-Fluoro-2-(6-(pyridazin-4-yl)pyridin-2-yl)vinyl)-3-phenoxy-2-(trifluoromethyl)phenyl)-N1-methylpropane-1,3-diamine], for which the IC50 at DGKα was at most 20 nM; at DGKζ it was 20 to 200 nM.

On to `COc1cc(F)ccc1Oc1ccc(/C=C(\F)c2nccc(-c3ccnnc3)n2)c(N2CCC[C@@H](CN)C2)c1Cl` [Example 6, (S,Z)-(1-(2-Chloro-6-(2-fluoro-2-(4-(pyridazin-4-yl)pyrimidin-2-yl)vinyl)-3-(4-fluoro-2-methoxyphenoxy)phenyl)piperidin-3-yl)methanamine], for which the IC50 on DGKα and at DGKζ was at most 20 nM throughout.

For the compound `COc1cc(F)ccc1Oc1ccc(/C=C(\F)c2ccnc(-c3ccnnc3)n2)c(N2CCC[C@@H](CN)C2)c1Cl` [Example 7, (S,Z)-(1-(2-Chloro-6-(2-fluoro-2-(2-(pyridazin-4-yl)pyrimidin-4-yl)vinyl)-3-(4-fluoro-2-methoxyphenoxy)phenyl)piperidin-3-yl)methanamine], the IC50 at DGKα and at DGKζ was at most 20 nM throughout.

For the compound `COc1cc(F)ccc1Oc1ccc(/C=C(\F)c2nncc(N3CCC(F)(F)C3)n2)c(N2CCC[C@@H](CN)C2)c1Cl` [Example 8, (S,Z)-(1-(2-Chloro-6-(2-(5-(3,3-difluoropyrrolidin-1-yl)-1,2,4-triazin-3-yl)-2-fluorovinyl)-3-(4-fluoro-2-methoxyphenoxy)phenyl)piperidin-3-yl)methanamine], the IC50 at DGKα and on DGKζ was at most 20 nM throughout.

Consider `F/C(=C\c1ccc(Oc2ccccc2)c(C(F)(F)F)c1N1CCOC2(CCNCC2)C1)c1cncc(-c2ccnnc2)n1` [Example 9, (Z)-4-(6-(2-Fluoro-2-(6-(pyridazin-4-yl)pyrazin-2-yl)vinyl)-3-phenoxy-2-(trifluoromethyl)phenyl)-1-oxa-4,9-diazaspiro[5.5]undecane], for which the IC50 at DGKα and at DGKζ was at most 20 nM in each case.

Regarding `F/C(=C\c1ccc(Oc2ccccc2)c(C(F)(F)F)c1N1CCOC2(CCN(CC3CC3)CC2)C1)c1cncc(-c2ccnnc2)n1` [Example 10, (Z)-9-(Cyclopropylmethyl)-4-(6-(2-fluoro-2-(6-(pyridazin-4-yl)pyrazin-2-yl)vinyl)-3-phenoxy-2-(trifluoromethyl)phenyl)-1-oxa-4,9-diazaspiro[5.5]undecane], the IC50 at DGKα and on DGKζ was at most 20 nM throughout.

As to `COCCN1CCC2(CC1)CN(c1c(/C=C(\F)c3cncc(-c4ccnnc4)n3)ccc(Oc3ccccc3)c1C(F)(F)F)CCO2` [Example 11, (Z)-4-(6-(2-Fluoro-2-(6-(pyridazin-4-yl)pyrazin-2-yl)vinyl)-3-phenoxy-2-(trifluoromethyl)phenyl)-9-(2-methoxyethyl)-1-oxa-4,9-diazaspiro[5.5]undecane], the IC50 was 20 to 200 nM at DGKα and at most 20 nM at DGKζ.

With `NC[C@H]1CCCN1c1c(/C=C(\F)c2cncc(-c3ccnnc3)n2)ccc(Oc2ccccc2)c1Cl` [Example 12, (R,Z)-(1-(2-Chloro-6-(2-fluoro-2-(6-(pyridazin-4-yl)pyrazin-2-yl)vinyl)-3-phenoxyphenyl)pyrrolidin-2-yl)methanamine], the IC50 on DGKζ is at most 20 nM.

With `NC[C@H]1CCCN1c1c(/C=C(\F)c2nccc(-c3ccnnc3)n2)ccc(Oc2ccccc2)c1Cl` [Example 13, (R,Z)-(1-(2-Chloro-6-(2-fluoro-2-(4-(pyridazin-4-yl)pyrimidin-2-yl)vinyl)-3-phenoxyphenyl)pyrrolidin-2-yl)methanamine], the IC50 on DGKα and at DGKζ was at most 20 nM in each case.

Regarding `CCN1CCC2(CC1)CN(c1c(/C=C(\F)c3cncc(-c4ccnnc4)n3)ccc(OC3CC3)c1C(F)(F)F)CCO2` [Example 14, (Z)-4-(3-Cyclopropoxy-6-(2-fluoro-2-(6-(pyridazin-4-yl)pyrazin-2-yl)vinyl)-2-(trifluoromethyl)phenyl)-9-ethyl-1-oxa-4,9-diazaspiro[5.5]undecane], the IC50 at DGKα and on DGKζ was 20 to 200 nM each time.

With `F/C(=C\c1ccc(Oc2ccccc2)c(C(F)(F)F)c1N1CCCC2(CCN(CC3CC3)CC2)C1)c1cncc(N2CC(F)(F)C2)n1` [Example 15, (Z)-9-(Cyclopropylmethyl)-2-(6-(2-(6-(3,3-difluoroazetidin-1-yl)pyrazin-2-yl)-2-fluorovinyl)-3-phenoxy-2-(trifluoromethyl)phenyl)-2,9-diazaspiro[5.5]undecane], the IC50 on DGKα and at DGKζ was at most 20 nM throughout.

Consider `CCN1CCC2(CCCN(c3c(/C=C(\F)c4cncc(N5CC(F)(F)C5)n4)ccc(Oc4ccccc4)c3C(F)(F)F)C2)CC1` [Example 16, (Z)-2-(6-(2-(6-(3,3-Difluoroazetidin-1-yl)pyrazin-2-yl)-2-fluorovinyl)-3-phenoxy-2-(trifluoromethyl)phenyl)-9-ethyl-2,9-diazaspiro[5.5]undecane], for which the IC50 on DGKα is 20 to 200 nM; at DGKζ, at most 20 nM.

For `[2H]c1c([2H])c([2H])c(Oc2ccc(/C=C(\F)c3cncc(N4CC(F)(F)C4)n3)c(N3CCCC4(CCN(CC5CC5)CC4)C3)c2C(F)(F)F)c([2H])c1[2H]` [Example 17, (Z)-9-(Cyclopropylmethyl)-2-(6-(2-(6-(3,3-difluoroazetidin-1-yl)pyrazin-2-yl)-2-fluorovinyl)-3-(phenoxy-d5)-2-(trifluoromethyl)phenyl)-2,9-diazaspiro[5.5]undecane], the IC50 on DGKα and on DGKζ was at most 20 nM in each case.

As to `[2H]c1c([2H])c([2H])c(Oc2ccc(/C=C(\F)c3cncc(N4CC(F)(F)C4)n3)c(N3CCCC4(CCN(CC)CC4)C3)c2C(F)(F)F)c([2H])c1[2H]` [Example 18, (Z)-2-(6-(2-(6-(3,3-Difluoroazetidin-1-yl)pyrazin-2-yl)-2-fluorovinyl)-3-(phenoxy-d5)-2-(trifluoromethyl)phenyl)-9-ethyl-2,9-diazaspiro[5.5]undecane], the IC50 on DGKα and on DGKζ was at most 20 nM throughout.

As to `F/C(=C\c1ccc(Oc2ccccc2)c(C(F)(F)F)c1N1CCCC2(CCN(CC3CC3)CC2)C1)c1cncc(N2CCC(F)(F)C2)n1` [Example 19, (Z)-9-(Cyclopropylmethyl)-2-(6-(2-(6-(3,3-difluoropyrrolidin-1-yl)pyrazin-2-yl)-2-fluorovinyl)-3-phenoxy-2-(trifluoromethyl)phenyl)-2,9-diazaspiro[5.5]undecane], the IC50 at DGKα and at DGKζ was at most 20 nM throughout.

In the case of `CCN1CCC2(CCCN(c3c(/C=C(\F)c4cncc(N5CCC(F)(F)C5)n4)ccc(Oc4ccccc4)c3C(F)(F)F)C2)CC1` [Example 20, (Z)-2-(6-(2-(6-(3,3-Difluoropyrrolidin-1-yl)pyrazin-2-yl)-2-fluorovinyl)-3-phenoxy-2-(trifluoromethyl)phenyl)-9-ethyl-2,9-diazaspiro[5.5]undecane], the 50% inhibitory concentration (IC50) at DGKα and on DGKζ was at most 20 nM throughout.

By IC50 is commonly meant the midpoint of a concentration-inhibition curve.
